EC50 data for 21 compounds are collected here from patent US20250171457A1, “NITROGEN-CONTAINING HETEROCYCLIC COMPOUND HAVING NRF2 ACTIVATION EFFECT” (CHUGAI SEIYAKU KABUSHIKI KAISHA, priority 2022, published 2025).

The subject of this test is Nrf2 transcriptional activity (pARE-Luc reporter) in HepG2 cells. As to the kind of experiment: In vitro Nrf2 transcriptional activity measurement by ARE-dependent reporter assay in HepG2 cell. The test is classed as cell-based, human. Conditions: Homo sapiens; HepG2 cells transfected with pARE-Luc, 4 hours at 37° C.; luciferase activity of Example 1-54 or Example 17-23 at 3.75 μM defined as 100%. As for the experimental part:
Test Example 1: In Vitro Nrf2 Transcriptional Activity Measurement by ARE-Dependent Reporter Assay in HepG2 Cell
A human liver cancer-derived cell line HepG2 was transfected with pGL4.37 vector (pARE-Luc, Promega Corp.) and incubated overnight at 37° C. in a humidified atmosphere containing 5% CO2. The cells were dissociated by trypsin treatment, inoculated to a 384-well plate supplemented with a test compound, and incubated at 37° C. for 4 hours. Then, Bright-Glo Reagent (Promega Corp.) was added to the plate, and luciferase activity was measured with Envision plate reader.
Luciferase activity obtained through the action of the compound of Example 1-54 or Example 17-23 at a concentration of 3.75 μM was defined as 100%. The luciferase activity of each well was converted to a response rate (%). The dose-response curve of the compound of each Example was prepared to calculate a 50% effective concentration (EC50).
(In general: In a reporter assay the amount or activity of a reporter protein is the signal.)

On to `CO[C@@H]1CC2(CN(c3cc(Cl)c(C(=O)N4COc5c(cccc5-c5cc(N6C7CCC6COC7)c(C(=O)O)cc5F)C4)c(Cl)c3)C2)[C@H]1C` (racemic) [Compound 1-86, 4-[3-[2,6-Dichloro-4-[rac-(6R,7R)-6-methoxy-7-methyl-2-azaspiro[3.3]heptan-2-yl]benzoyl]-2,4-dihydro-1,3-benzoxazin-8-yl]-5-fluoro-2-(3-oxa-8-azabicyclo[3.2.1]octan-8-yl)benzoic acid], for which the EC50 (commonly the concentration giving half of the maximal effect) came to 1.1 nM.

Regarding `CO[C@H]1CC2(CN(c3cc(Cl)c(C(=O)N4COc5c(cccc5-c5cc(N6C7CCC6COC7)c(C(=O)O)cc5F)C4)c(Cl)c3)C2)[C@H]1C` (racemic) [Compound 1-87, 4-[3-[2,6-Dichloro-4-[rac-(6R,7S)-6-methoxy-7-methyl-2-azaspiro[3.3]heptan-2-yl]benzoyl]-2,4-dihydro-1,3-benzoxazin-8-yl]-5-fluoro-2-(3-oxa-8-azabicyclo[3.2.1]octan-8-yl)benzoic acid], the EC50 amounted to 1 nM. The EC50 values of the last two compounds are within 1.5-fold of each other. Next, `CO[C@H]1C[C@H]2CC[C@@H](C1)N2c1cc(Cl)c(C(=O)N2COc3c(cccc3-c3cc(N4C5CCC4COC5)c(C(=O)O)cc3F)C2)c(Cl)c1` (racemic) [Compound 6-11, 4-[3-[2,6-Dichloro-4-[rac-(1R,3r,5S)-3-methoxy-8-azabicyclo[3.2.1]octan-8-yl]benzoyl]-2,4-dihydro-1,3-benzoxazin-8-yl]-5-fluoro-2-(3-oxa-8-azabicyclo[3.2.1]octan-8-yl)benzoic acid]: 1.5 nM. For the compound `CO[C@H]1C[C@H]2CN(c3cc(Cl)c(C(=O)N4COc5c(cccc5-c5cc(N6C7CCC6COC7)c(C(=O)O)cc5F)C4)c(Cl)c3)C[C@H]21` (racemic) [Compound 6-12, 4-[3-[2,6-Dichloro-4-[rac-(1R,5S,6S)-6-methoxy-3-azabicyclo[3.2.0]heptan-3-yl]benzoyl]-2,4-dihydro-1,3-benzoxazin-8-yl]-5-fluoro-2-(3-oxa-8-azabicyclo[3.2.1]octan-8-yl)benzoic acid], the EC50 is 3.9 nM. Consider `COC1CCC12CN(c1cc(Cl)c(C(=O)N3COc4c(cccc4-c4cc(N5C6CCC5COC6)c(C(=O)O)cc4F)C3)c(Cl)c1)C2` (racemic) [Compound 6-13, 4-[3-[2,6-Dichloro-4-(rac-7-methoxy-2-azaspiro[3.3]heptan-2-yl)benzoyl]-2,4-dihydro-1,3-benzoxazin-8-yl]-5-fluoro-2-(3-oxa-8-azabicyclo[3.2.1]octan-8-yl)benzoic acid], for which the midpoint of the response, the EC50, lay at 3.8 nM. For `COCCN1CCN(c2cc(Cl)c(C(=O)N3COc4c(cccc4-c4cc(N5CCOCC5C#N)c(C(=O)O)cc4F)C3)c(Cl)c2)CC1` (racemic) [Compound 20-10, rac-2-(3-Cyanomorpholin-4-yl)-4-[3-[2,6-dichloro-4-[4-(2-methoxyethyl)piperazin-1-yl]benzoyl]-2,4-dihydro-1,3-benzoxazin-8-yl]-5-fluorobenzoic acid] the value was 25 nM; for `O=C(O)c1cc(F)c(-c2cccc3c2OCN(C(=O)c2c(Cl)cc(OC4CCOC4)cc2Cl)C3)cc1N1C2CCC1COC2` (stereo in doubt) [Compound 4-36, 4-[3-[2,6-Dichloro-4-[(3R)-oxolan-3-yl]oxybenzoyl]-2,4-dihydro-1,3-benzoxazin-8-yl]-5-fluoro-2-(3-oxa-8-azabicyclo[3.2.1]octan-8-yl)benzoic acid], 8.7 nM. For `O=C(O)c1cc(F)c(-c2cccc3c2OCN(C(=O)c2c(Cl)cc(N4CC5(CCCO5)C4)cc2Cl)C3)cc1N1C2CCC1COC2` [Compound 1-1, 4-[3-[2,6-Dichloro-4-(5-oxa-2-azaspiro[3.4]octan-2-yl)benzoyl]-2,4-dihydro-1,3-benzoxazin-8-yl]-5-fluoro-2-(3-oxa-8-azabicyclo[3.2.1]octan-8-yl)benzoic acid] the value was 2.8 nM. For `O=C(O)c1cc(F)c(-c2cccc3c2OCN(C(=O)c2c(Cl)cc(N4CC5(CCO5)C4)cc2Cl)C3)cc1N1C2CCC1COC2` [Compound 1-2, 4-[3-[2,6-Dichloro-4-(1-oxa-6-azaspiro[3.3]heptan-6-yl)benzoyl]-2,4-dihydro-1,3-benzoxazin-8-yl]-5-fluoro-2-(3-oxa-8-azabicyclo[3.2.1]octan-8-yl)benzoic acid] the value was 8.6 nM; for `O=C(O)c1cc(F)c(-c2cccc3c2OCN(C(=O)c2c(Cl)cc(N4CC5(CCOC5)C4)cc2Cl)C3)cc1N1C2CCC1COC2` [Compound 1-3, 4-[3-[2,6-Dichloro-4-(6-oxa-2-azaspiro[3.4]octan-2-yl)benzoyl]-2,4-dihydro-1,3-benzoxazin-8-yl]-5-fluoro-2-(3-oxa-8-azabicyclo[3.2.1]octan-8-yl)benzoic acid], 5.8 nM. Consider `O=C(O)c1cc(F)c(-c2cccc3c2OCN(C(=O)c2c(Cl)cc(N4C5COCC4C5)cc2Cl)C3)cc1N1C2CCC1COC2` [Compound 1-5, 4-[3-[2,6-Dichloro-4-(3-oxa-6-azabicyclo[3.1.1]heptan-6-yl)benzoyl]-2,4-dihydro-1,3-benzoxazin-8-yl]-5-fluoro-2-(3-oxa-8-azabicyclo[3.2.1]octan-8-yl)benzoic acid], for which the half-maximal effective concentration (EC50) was found to be 3.1 nM. For `O=C(O)c1cc(F)c(-c2cccc3c2OCN(C(=O)c2c(Cl)cc(N4CC5(CC(O)C5)C4)cc2Cl)C3)cc1N1C2CCC1COC2` [Compound 1-6, 4-[3-[2,6-Dichloro-4-(6-hydroxy-2-azaspiro[3.3]heptan-2-yl)benzoyl]-2,4-dihydro-1,3-benzoxazin-8-yl]-5-fluoro-2-(3-oxa-8-azabicyclo[3.2.1]octan-8-yl)benzoic acid] the value was 9.6 nM; for `O=C(O)c1cc(F)c(-c2cccc3c2OCN(C(=O)c2c(Cl)cc(N4CC5(C4)CC5(F)F)cc2Cl)C3)cc1N1C2CCC1COC2` [Compound 1-7, 4-[3-[2,6-Dichloro-4-(2,2-difluoro-5-azaspiro[2.3]hexan-5-yl)benzoyl]-2,4-dihydro-1,3-benzoxazin-8-yl]-5-fluoro-2-(3-oxa-8-azabicyclo[3.2.1]octan-8-yl)benzoic acid], 2 nM; for `COC1(C(F)F)CN(c2cc(Cl)c(C(=O)N3COc4c(cccc4-c4cc(N5C6CCC5COC6)c(C(=O)O)cc4F)C3)c(Cl)c2)C1` [Compound 1-8, 4-[3-[2,6-Dichloro-4-[3-(difluoromethyl)-3-methoxyazetidin-1-yl]benzoyl]-2,4-dihydro-1,3-benzoxazin-8-yl]-5-fluoro-2-(3-oxa-8-azabicyclo[3.2.1]octan-8-yl)benzoic acid], 2.2 nM. Next, `COC1CN(c2cc(Cl)c(C(=O)N3COc4c(cccc4-c4cc(N5C6CCC5COC6)c(C(=O)O)cc4F)C3)c(Cl)c2)C1(C)C` (stereo not drawn) [Compound 1-9, 4-[3-[2,6-Dichloro-4-(3-methoxy-2,2-dimethylazetidin-1-yl)benzoyl]-2,4-dihydro-1,3-benzoxazin-8-yl]-5-fluoro-2-(3-oxa-8-azabicyclo[3.2.1]octan-8-yl)benzoic acid]: 4.6 nM; `O=C(O)c1cc(F)c(-c2cccc3c2OCN(C(=O)c2c(Cl)cc(N4CC(OC(F)F)C4)cc2Cl)C3)cc1N1C2CCC1COC2` [Compound 1-10, 4-[3-[2,6-Dichloro-4-[3-(difluoromethoxy)azetidin-1-yl]benzoyl]-2,4-dihydro-1,3-benzoxazin-8-yl]-5-fluoro-2-(3-oxa-8-azabicyclo[3.2.1]octan-8-yl)benzoic acid]: 3.1 nM. For `CC1(F)CN(c2cc(Cl)c(C(=O)N3COc4c(cccc4-c4cc(N5C6CCC5COC6)c(C(=O)O)cc4F)C3)c(Cl)c2)C1` [Compound 1-11, 4-[3-[2,6-Dichloro-4-(3-fluoro-3-methylazetidin-1-yl)benzoyl]-2,4-dihydro-1,3-benzoxazin-8-yl]-5-fluoro-2-(3-oxa-8-azabicyclo[3.2.1]octan-8-yl)benzoic acid] the value was 2.1 nM; for `O=C(O)c1cc(F)c(-c2cccc3c2OCN(C(=O)c2c(Cl)cc(N4CC(O)(C(F)(F)F)C4)cc2Cl)C3)cc1N1C2CCC1COC2` [Compound 1-12, 4-[3-[2,6-Dichloro-4-[3-hydroxy-3-(trifluoromethyl)azetidin-1-yl]benzoyl]-2,4-dihydro-1,3-benzoxazin-8-yl]-5-fluoro-2-(3-oxa-8-azabicyclo[3.2.1]octan-8-yl)benzoic acid], 16 nM.

Compound `O=C(O)c1cc(F)c(-c2cccc3c2OCN(C(=O)c2c(Cl)cc(N4CC5(CC5)C4)cc2Cl)C3)cc1N1C2CCC1COC2` [Compound 1-13, 4-[3-[4-(5-Azaspiro[2.3]hexan-5-yl)-2,6-dichlorobenzoyl]-2,4-dihydro-1,3-benzoxazin-8-yl]-5-fluoro-2-(3-oxa-8-azabicyclo[3.2.1]octan-8-yl)benzoic acid] registered an EC50 of 2.4 nM. This EC50 is about 6.7-fold lower than that of the compound before. Next, `O=C(O)c1cc(F)c(-c2cccc3c2OCN(C(=O)c2c(Cl)cc(N4CC(OC(F)(F)F)C4)cc2Cl)C3)cc1N1C2CCC1COC2` [Compound 1-14, 4-[3-[2,6-Dichloro-4-[3-(trifluoromethoxy)azetidin-1-yl]benzoyl]-2,4-dihydro-1,3-benzoxazin-8-yl]-5-fluoro-2-(3-oxa-8-azabicyclo[3.2.1]octan-8-yl)benzoic acid]: 4.4 nM. Next, `CC1(C#N)CN(c2cc(Cl)c(C(=O)N3COc4c(cccc4-c4cc(N5C6CCC5COC6)c(C(=O)O)cc4F)C3)c(Cl)c2)C1` [Compound 1-15, 4-[3-[2,6-Dichloro-4-(3-cyano-3-methylazetidin-1-yl)benzoyl]-2,4-dihydro-1,3-benzoxazin-8-yl]-5-fluoro-2-(3-oxa-8-azabicyclo[3.2.1]octan-8-yl)benzoic acid]: 2.7 nM.
